Reference: patent US9862707B2, “TrkA kinase inhibitors, compositions and methods thereof” (Merck Sharp & Dohme Corp., priority 2014, dated 2018)

What follows are compounds tested against human TrkA receptor (Homo sapiens (Human), UniProt P04629) (assay: TrkA functional activity, DiscoverX PathHunter assay). Conditions: U2OS cells expressing human TrkA-PK, Shc1-EA and p75NTR; compound 1 h, then NGF at ~80% of maximal response for 3 h; luminescence.
Type: cell-based

Chain of human TrkA receptor (P04629 33-796): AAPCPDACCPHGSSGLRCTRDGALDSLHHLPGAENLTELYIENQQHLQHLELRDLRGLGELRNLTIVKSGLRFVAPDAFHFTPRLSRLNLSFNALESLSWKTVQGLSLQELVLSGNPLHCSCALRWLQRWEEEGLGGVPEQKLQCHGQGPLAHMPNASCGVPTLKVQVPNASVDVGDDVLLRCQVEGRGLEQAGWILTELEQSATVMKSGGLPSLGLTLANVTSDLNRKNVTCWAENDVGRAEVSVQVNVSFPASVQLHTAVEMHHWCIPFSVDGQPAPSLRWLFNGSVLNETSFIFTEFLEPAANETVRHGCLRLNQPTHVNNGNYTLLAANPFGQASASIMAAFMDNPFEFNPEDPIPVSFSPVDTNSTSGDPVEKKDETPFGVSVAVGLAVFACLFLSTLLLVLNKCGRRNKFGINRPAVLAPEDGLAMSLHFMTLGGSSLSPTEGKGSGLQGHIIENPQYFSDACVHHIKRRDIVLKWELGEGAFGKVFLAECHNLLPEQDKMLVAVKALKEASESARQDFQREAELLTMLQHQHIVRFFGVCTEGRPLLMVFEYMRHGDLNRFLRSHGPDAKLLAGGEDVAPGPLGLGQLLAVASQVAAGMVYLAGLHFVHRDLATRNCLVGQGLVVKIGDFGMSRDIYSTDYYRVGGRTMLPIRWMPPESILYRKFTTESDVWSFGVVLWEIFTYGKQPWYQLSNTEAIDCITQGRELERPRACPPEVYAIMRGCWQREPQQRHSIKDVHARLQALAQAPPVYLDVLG

Row | Structure (SMILES) | IC50 [nM]
1 | O=C(NCCO)c1ccc2c(NC(=O)c3cc(-c4ncccn4)c(C(F)(F)F)cc3Cl)n(-c3ccccc3)nc2c1 [Compound 90, 3-({[2-chloro-5-pyrimidin-2-yl-4-(trifluoromethyl)phenyl]carbonyl}amino)-N-(2-hydroxyethyl)-2-phenyl-2H-indazole-6-carboxamide] | 14
2 | Cc1ccccc1-n1nc2cc(C(N)=O)cnc2c1NC(=O)c1cc(-c2ncccn2)c(C(F)(F)F)cc1F [Compound 91, 3-({[2-fluoro-5-pyrimidin-2-yl-4-(trifluoromethyl)phenyl]carbonyl}amino)-2-(2-methylphenyl)-2H-pyrazolo[4,3-b]pyridine-6-carboxamide] | 52
3 | O=C(NCCO)c1ccc2c(NC(=O)c3cc(-c4ncccn4)c(C(F)(F)F)cc3F)n(-c3ccccc3)nc2c1 [Compound 92, 3-({[2-fluoro-5-pyrimidin-2-yl-4-(trifluoromethyl)phenyl]carbonyl}amino)-N-(2-hydroxyethyl)-2-phenyl-2H-indazole-6-carboxamide] | 11
4 | Cc1ccccc1-n1nc2cc(C(N)=O)ccc2c1NC(=O)c1cc(-c2ncccn2)c(C(F)(F)F)cc1F [Compound 93, 3-({[2-fluoro-5-pyrimidin-2-yl-4-(trifluoromethyl)phenyl]carbonyl}amino)-2-(2-methylphenyl)-2H-indazole-6-carboxamide] | 32
5 | O=C(CO)NCc1ccc2c(NC(=O)c3cc(-c4ncccn4)c(C(F)(F)F)cc3F)n(-c3ccccc3)nc2c1 [Compound 98, 2-Fluoro-N-(6-((2-hydroxyacetamido)methyl)-2-phenyl-2H-indazol-3-yl)-5-(pyrimidin-2-yl)-4-(trifluoromethyl)benzamide] | 11

The remaining compounds from weak to strong by IC50, led by results:

Row | IC50 [nM] | Structure (SMILES)
6 | 11 | NC(=O)c1cccc2c(NC(=O)c3cc(-c4ncccn4)c(C(F)(F)F)cc3F)n(-c3ccccc3)nc12 [Compound 89, 3-({[2-fluoro-5-pyrimidin-2-yl-4-(trifluoromethyl)phenyl]carbonyl}amino)-2-phenyl-2H-indazole-7-carboxamide]
7 | 8.9 | CNC(=O)Cc1ccc2c(NC(=O)c3cc(-c4ncccn4)c(C(F)(F)F)cc3F)n(-c3ccccc3)nc2c1 [Compound 96, 2-fluoro-N-{6-[2-(methylamino)-2-oxoethyl]-2-phenyl-2H-indazol-3-yl}-5-pyrimidin-2-yl-4-(trifluoromethyl)benzamide]
8 | 4.4 | NC(=O)Cc1ccc2c(NC(=O)c3cc(-c4ncccn4)c(C(F)(F)F)cc3F)n(-c3ccccc3)nc2c1 [Compound 94, N-(6-(2-Amino-2-oxoethyl)-2-phenyl-2H-indazol-3-yl)-2-fluoro-5-(pyrimidin-2-yl)-4-(trifluoromethyl)benzamide]
9 | 2.7 | Cn1ccc(-c2cc(C(=O)Nc3c4ccc([C@@H](N)C(F)(F)F)cc4nn3-c3ccccc3)ccc2C(F)(F)F)n1 [Compound 100]
10 | 1.8 | Cn1ccc(-c2cc(C(=O)Nc3c4ccc([C@H](N)C(F)(F)F)cc4nn3-c3ccccc3)ccc2C(F)(F)F)n1 [Compound 101, (S)—N-(6-(1-Amino-2,2,2-trifluoroethyl)-2-phenyl-2H-indazol-3-yl)-3-(1-methyl-1H-pyrazol-3-yl)-4-(trifluoromethyl)benzamide]
11 | 0.88 | Cn1ccc(-c2cc(C(=O)Nc3c4nccc(CN5C(=O)CNC5=O)c4nn3-c3ccccc3)c(F)cc2C(F)(F)F)n1 [Compound 99, N-(7-((2,5-dioxoimidazolidin-1-yl)methyl)-2-phenyl-2H-pyrazolo[4,3-b]pyridin-3-yl)-2-fluoro-5-(1-methyl-1H-pyrazol-3-yl)-4-(trifluoromethyl)benzamide]
12 | 0.64 | Cn1ccc(-c2cc(C(=O)Nc3c4cccc(CC(N)=O)c4nn3-c3ccccc3)c(F)cc2C(F)(F)F)n1 [Compound 95, N-(7-(2-Amino-2-oxoethyl)-2-phenyl-2H-indazol-3-yl)-2-fluoro-5-(1-methyl-1H-pyrazol-3-yl)-4-(trifluoromethyl)benzamide]
